Results: article PMC10082777, “Pyrazole-sulfonamide scaffold featuring dual-tail strategy as apoptosis inducers in colon cancer” (Scientific Reports, 2023)

Biological target: T1, Carbonic Anhydrase IX (CA IX) (Homo sapiens, UniProt Q16790)
T1 construct: gene CA9; AA 1-459, GST tag
Test: CA inhibitor screening kit (BioVision K473-100), recombinant CA IX, absorbance at […] nm, kinetic mode
Type: biochemical

Nc1cc(Nc2ccc(S(=O)(=O)Nc3ccccn3)cc2)n(-c2ccccc2)n1 [compound 3, 4-((3-Amino-1-phenyl-1H-pyrazol-5-yl)amino)-N-(pyridin-2-yl) benzenesulfonamide]
IC50: 0.336 µM

Nc1nn(-c2ccccc2)c(-c2ccccc2)c1C(=O)Nc1ccc(S(=O)(=O)Nc2ccccn2)cc1 [compound 11, 3-Amino-1,5-diphenyl-N-(4-(N-(pyridin-2-yl)sulfamoyl)phenyl)-1H-pyrazole-4-carboxamide]
IC50: 0.128 µM
